# Results from patent US8367830B2, “Methods for the identification of phosphatidylinositol kinase interacting molecules and for the purification of phosphatidylinositol kinase proteins” (Cellzome AG, priority 2009, dated 2013).
# Legend:
# [1] = target: PIK4Ca (Homo sapiens, UniProt P42356); test: Kinobeads competition binding, immobilized CZC31207, HeLa/placenta lysate mix; design: endogenous in cells; settings: 10 μM free compound; mixed HeLa and placenta cell lysates
# Experimental: (§1) To the first aliquot of cell lysate 10 μM of the free compound (CZC31207) was added and allowed to bind to proteins in the lysate. Then the affinity matrix with the immobilized compound (Example 1) was added to capture proteins that were not interacting with the previously added free compound. Beads were separated from the lysate and bead bound proteins were eluted in SDS sample buffer and subsequently separated by SDS-Polyacrylamide gel electrophoresis (FIG. 4). Suitable gel bands were cut out and subjected to in-gel proteolytic digestion with trypsin. The second lysate aliquot was processed identically, however no free compound was added (DMSO solvent control). Peptides originating from samples 1 and 2 were labeled with iTRAQ reagents (iTRAQ 115 and iTRAQ 117) and the combined samples were analyzed with a nano-flow liquid chromatography system coupled online to a tandem mass spectrometer (LC-MS/MS) experiment followed by iTRAQ reporter ion quantification in the MS/MS spectra (Ross et al., 2004. Mol. Cell. Proteomics 3(12):1154-1169). Further experimental protocols can be found in WO2006/134056 and a previous publication (Bantscheff et al., 2007. Nature Biotechnology 25, 1035-1044).
# (§2) Cells were homogenized in a Potter S homogenizer in lysis buffer: 50 mM Tris-HCl, 0.8% NP40, 5% glycerol, 150 mM NaCl, 1.5 mM MgCl2, 25 mM NaF, 1 mM sodium vanadate, 1 mM DTT, pH 7.5. One complete EDTA-free tablet (protease inhibitor cocktail, Roche Diagnostics, 1 873 580) per 25 ml buffer was added. The material was dounced 20 times using a mechanized POTTER S, transferred to 50 ml falcon tubes, incubated for 30 minutes rotating at 4° C. and spun down for 10 minutes at 20,000×g at 4° C. (10,000 rpm in Sorvall SLA600, precooled). The supernatant was transferred to an ultracentrifuge (UZ)-polycarbonate tube (Beckmann, 355654) and spun for 1 hour at 145.000×g at 4° C. (40.000 rpm in Ti50.2, precooled). The supernatant was transferred again to a fresh 50 ml falcon tube, the protein concentration was determined by a Bradford assay (BioRad) and samples containing 50 mg of protein per aliquot were prepared. The samples were immediately used for experiments or frozen in liquid nitrogen and stored frozen at −80° C.
# (§3) Sepharose-beads with the immobilized compound (100 μl beads per pull-down experiment) were equilibrated in lysis buffer and incubated with a cell lysate sample containing 50 mg of protein on an end-over-end shaker (Roto Shake Genie, Scientific Industries Inc.) for 2 hours at 4° C. Beads were collected, transferred to Mobicol-columns (MoBiTech 10055) and washed with 10 ml lysis buffer containing 0.4% NP40 detergent, followed by 5 ml lysis buffer containing 0.2% detergent. To elute bound proteins, 60 μl 2×SDS sample buffer was added to the column. […]
# [2] = target: BCKDK (Homo sapiens, UniProt O14874); test: as above; design: endogenous in cells; settings: 10 μM free compound; mixed HeLa and placenta cell lysates
# Experimental: as §1, §2, §3
# [3] = target: CaMK2g (Homo sapiens, UniProt Q13555); test: as above; design: endogenous in cells; settings: 10 μM free compound; mixed HeLa and placenta cell lysates
# Experimental: as §1, §2, §3
# [4] = target: MAP3K1 (Homo sapiens, UniProt Q13233); test: as above; design: endogenous in cells; settings: 10 μM free compound; mixed HeLa and placenta cell lysates
# Experimental: as §1, §2, §3
# [5] = target: T1, PIK4C2B (Homo sapiens, UniProt Q8TCG2); test: Kinobeads competition binding, immobilized CZC31207, Jurkat/Ramos lysate mix; settings: 10 μM free compound; mix of Jurkat and Ramos cell lysates
# T1 construct: endogenous in cells; host or cells: mixed lysate of Jurkat and Ramos cells
# Experimental: (§4) To the first aliquot of cell lysate 10 μM of the free compound CZC31207 was added and allowed to bind to proteins in the lysate. Then the affinity matrix with the immobilized compound was added to capture proteins that were not interacting with the previously added free compound. Beads were separated from the lysate and bead bound proteins were eluted in SDS sample buffer and subsequently separated by SDS-Polyacrylamide gel electrophoresis (FIG. 5). Suitable gel bands were cut out and subjected to in-gel proteolytic digestion with trypsin. The second lysate aliquot was processed identically, however no free compound was added (DMSO solvent control). Peptides originating from samples 1 and 2 were labeled with iTRAQ reagents (iTRAQ 114 and iTRAQ 116) and the combined samples were analyzed with a nano-flow liquid chromatography system coupled online to a tandem mass spectrometer (LC-MS/MS) experiment followed by iTRAQ reporter ion quantification in the MS/MS spectra as described in Example 2.
# (§5) Jurkat cells (ATCC number T1B-152) and Ramos cells (ATCC number CRL-1596) were either obtained from an external supplier (CIL SA, Mons, Belgium) or grown in one litre Spinner flasks (Integra Biosciences, #182101) in suspension in RPMI 1640 medium (Invitrogen, #21875-034) supplemented with 10% Fetal Bovine Serum (Invitrogen, #10270-106) at a density between 0.2×10^6 and 1.0×10^6 cells/ml. Cells were harvested by centrifugation, washed once with 1×PBS buffer (Invitrogen, #14190-094) and cell pellets were frozen in liquid nitrogen and subsequently stored at −80° C.
# (§6) The identified kinases are shown in Table 5 including the percent competition values for the sample to which 10 μM free compound had been added. In total of 20 different kinases were identified and competed by different degrees.
# [6] = target: T2, CDC2 (Homo sapiens, UniProt P06493); test: as above; settings: 10 μM free compound; mix of Jurkat and Ramos cell lysates
# T2 construct: endogenous in cells; host or cells: mixed lysate of Jurkat and Ramos cells
# Experimental: as §4, §5, §6
# [7] = target: T3, PIK3C3 (Homo sapiens, UniProt Q8NEB9); test: as above; settings: 10 μM free compound; mix of Jurkat and Ramos cell lysates
# T3 construct: endogenous in cells; host or cells: mixed lysate of Jurkat and Ramos cells
# Experimental: as §4, §5, §6
# [8] = target: T4, CDK6 (Homo sapiens, UniProt Q00534); test: as above; settings: 10 μM free compound; mix of Jurkat and Ramos cell lysates
# T4 construct: endogenous in cells; host or cells: mixed lysate of Jurkat and Ramos cells
# Experimental: as §4, §5, §6
# [9] = target: T5, MST1 (Homo sapiens, UniProt Q13043); test: as above; settings: 10 μM free compound; mix of Jurkat and Ramos cell lysates
# T5 construct: endogenous in cells; host or cells: mixed lysate of Jurkat and Ramos cells
# Experimental: as §4, §5, §6
# [10] = target: T6, BIKE (Homo sapiens, UniProt Q9NSY1); test: as above; settings: 10 μM free compound; mix of Jurkat and Ramos cell lysates
# T6 construct: endogenous in cells; host or cells: mix of Jurkat and Ramos cell lysates
# Experimental: as §4, §5, §6
# [11] = target: T7, PKD2 (Homo sapiens, UniProt Q9BZL6); test: as above; settings: 10 μM free compound; mix of Jurkat and Ramos cell lysates
# T7 construct: endogenous in cells; host or cells: mixed lysate of Jurkat and Ramos cells
# Experimental: as §4, §5, §6
# [12] = target: T8, CaMK2d (Homo sapiens, UniProt Q13557); test: as above; settings: 10 μM free compound; mix of Jurkat and Ramos cell lysates
# T8 construct: endogenous in cells; host or cells: mix of Jurkat and Ramos cell lysates
# Experimental: as §4, §5, §6
# [13] = target: T9, PIP5K2A (Homo sapiens, UniProt P48426); test: as above; settings: 10 μM free compound; mix of Jurkat and Ramos cell lysates
# T9 construct: endogenous in cells
# Experimental: as §4, §5, §6
# [14] = target: NEK2 (Homo sapiens, UniProt P51955); test: as above; design: endogenous in cells; settings: 10 μM free compound; mix of Jurkat and Ramos cell lysates
# Experimental: as §4, §5, §6
# [15] = target: PIK3Cd (Homo sapiens, UniProt O00329); test: as above; design: endogenous in cells; settings: 10 μM free compound; mix of Jurkat and Ramos cell lysates
# Experimental: as §4, §5, §6
# [16] = target: PIK3Cb (Homo sapiens, UniProt P42338); test: as above; design: endogenous in cells; settings: 10 μM free compound; mix of Jurkat and Ramos cell lysates
# Experimental: as §4, §5, §6
# [17] = target: FRAP (Homo sapiens, UniProt P42345); test: as above; design: endogenous in cells; settings: 10 μM free compound; mix of Jurkat and Ramos cell lysates
# Experimental: as §4, §5, §6
# [18] = target: PIK3Cg (Homo sapiens, UniProt P48736); test: as above; design: endogenous in cells; settings: 10 μM free compound; mix of Jurkat and Ramos cell lysates
# Experimental: as §4, §5, §6
# [19] = target: PIP5K2C (Homo sapiens, UniProt Q8TBX8); test: as above; design: endogenous in cells; settings: 10 μM free compound; mix of Jurkat and Ramos cell lysates
# Experimental: as §4, §5, §6
# T1 sequence (Q8TCG2 whole entry): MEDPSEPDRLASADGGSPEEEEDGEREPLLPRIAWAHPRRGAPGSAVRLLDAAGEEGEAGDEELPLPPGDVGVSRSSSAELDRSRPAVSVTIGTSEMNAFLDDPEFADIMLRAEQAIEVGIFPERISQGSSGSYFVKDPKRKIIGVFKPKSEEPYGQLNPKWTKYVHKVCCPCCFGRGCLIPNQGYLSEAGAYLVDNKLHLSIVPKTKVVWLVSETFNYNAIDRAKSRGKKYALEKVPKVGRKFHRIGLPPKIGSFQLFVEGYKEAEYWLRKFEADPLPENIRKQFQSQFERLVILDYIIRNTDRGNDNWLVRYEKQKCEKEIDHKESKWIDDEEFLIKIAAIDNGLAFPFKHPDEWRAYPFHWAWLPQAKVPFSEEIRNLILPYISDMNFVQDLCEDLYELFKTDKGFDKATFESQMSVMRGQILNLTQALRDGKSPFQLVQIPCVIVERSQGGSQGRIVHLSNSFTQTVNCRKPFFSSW
# T4 sequence (Q00534 whole entry): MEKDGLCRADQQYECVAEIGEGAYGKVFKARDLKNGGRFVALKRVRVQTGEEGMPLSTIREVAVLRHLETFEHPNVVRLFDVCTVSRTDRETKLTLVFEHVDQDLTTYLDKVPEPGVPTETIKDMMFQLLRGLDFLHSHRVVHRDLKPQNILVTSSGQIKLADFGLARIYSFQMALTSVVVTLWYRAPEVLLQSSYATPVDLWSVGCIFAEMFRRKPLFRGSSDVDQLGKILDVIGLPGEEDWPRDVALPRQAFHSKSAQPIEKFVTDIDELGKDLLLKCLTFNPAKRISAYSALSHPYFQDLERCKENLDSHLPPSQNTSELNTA
# PIK3Cd, sequence (O00329 whole entry): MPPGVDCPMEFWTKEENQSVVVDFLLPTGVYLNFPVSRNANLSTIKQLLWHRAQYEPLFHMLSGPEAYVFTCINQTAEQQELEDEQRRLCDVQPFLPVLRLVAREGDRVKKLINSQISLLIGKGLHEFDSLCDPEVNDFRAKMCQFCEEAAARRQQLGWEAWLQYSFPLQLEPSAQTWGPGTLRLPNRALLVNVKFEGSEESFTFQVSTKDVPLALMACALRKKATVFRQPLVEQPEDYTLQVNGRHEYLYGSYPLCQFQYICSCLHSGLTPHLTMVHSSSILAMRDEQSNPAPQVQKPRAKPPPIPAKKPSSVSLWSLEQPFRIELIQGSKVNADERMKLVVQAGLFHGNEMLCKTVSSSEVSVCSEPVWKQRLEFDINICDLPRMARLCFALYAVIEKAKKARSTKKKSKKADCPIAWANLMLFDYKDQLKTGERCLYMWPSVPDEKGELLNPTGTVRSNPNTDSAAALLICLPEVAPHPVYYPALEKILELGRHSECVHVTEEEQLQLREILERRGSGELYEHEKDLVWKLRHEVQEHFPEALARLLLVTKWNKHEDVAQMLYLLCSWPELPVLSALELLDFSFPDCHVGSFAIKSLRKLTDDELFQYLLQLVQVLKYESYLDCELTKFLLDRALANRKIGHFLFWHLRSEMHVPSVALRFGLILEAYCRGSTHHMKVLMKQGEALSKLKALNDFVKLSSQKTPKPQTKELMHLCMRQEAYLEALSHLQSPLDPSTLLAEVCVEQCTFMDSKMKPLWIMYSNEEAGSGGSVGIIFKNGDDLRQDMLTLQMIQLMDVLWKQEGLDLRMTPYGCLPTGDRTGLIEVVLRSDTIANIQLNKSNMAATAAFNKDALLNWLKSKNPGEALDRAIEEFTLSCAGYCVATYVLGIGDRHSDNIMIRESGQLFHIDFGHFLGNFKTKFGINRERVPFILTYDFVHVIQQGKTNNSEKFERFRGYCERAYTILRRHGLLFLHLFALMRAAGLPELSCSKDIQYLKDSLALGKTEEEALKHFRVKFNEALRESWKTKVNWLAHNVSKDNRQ
# PIK3Cd, sequence (P27986 whole entry partner): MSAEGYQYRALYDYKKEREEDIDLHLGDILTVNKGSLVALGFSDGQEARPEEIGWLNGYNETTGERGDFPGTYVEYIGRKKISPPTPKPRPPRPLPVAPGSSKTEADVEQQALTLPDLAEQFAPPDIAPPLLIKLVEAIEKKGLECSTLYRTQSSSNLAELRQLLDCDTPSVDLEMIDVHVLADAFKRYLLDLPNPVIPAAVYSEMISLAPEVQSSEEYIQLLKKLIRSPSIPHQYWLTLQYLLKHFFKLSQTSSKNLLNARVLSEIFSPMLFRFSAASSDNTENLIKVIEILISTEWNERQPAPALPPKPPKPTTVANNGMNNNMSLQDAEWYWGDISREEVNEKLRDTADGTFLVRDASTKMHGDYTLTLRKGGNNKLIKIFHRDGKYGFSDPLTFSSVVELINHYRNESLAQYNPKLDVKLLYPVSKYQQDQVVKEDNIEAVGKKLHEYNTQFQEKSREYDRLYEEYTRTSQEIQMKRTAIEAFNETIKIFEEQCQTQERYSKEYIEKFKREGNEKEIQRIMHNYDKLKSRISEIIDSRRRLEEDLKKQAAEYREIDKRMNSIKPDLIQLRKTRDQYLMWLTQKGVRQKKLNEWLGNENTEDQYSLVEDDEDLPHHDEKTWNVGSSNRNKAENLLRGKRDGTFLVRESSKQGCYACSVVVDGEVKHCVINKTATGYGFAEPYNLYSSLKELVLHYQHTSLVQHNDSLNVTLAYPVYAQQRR
# T6 sequence (Q9NSY1 whole entry): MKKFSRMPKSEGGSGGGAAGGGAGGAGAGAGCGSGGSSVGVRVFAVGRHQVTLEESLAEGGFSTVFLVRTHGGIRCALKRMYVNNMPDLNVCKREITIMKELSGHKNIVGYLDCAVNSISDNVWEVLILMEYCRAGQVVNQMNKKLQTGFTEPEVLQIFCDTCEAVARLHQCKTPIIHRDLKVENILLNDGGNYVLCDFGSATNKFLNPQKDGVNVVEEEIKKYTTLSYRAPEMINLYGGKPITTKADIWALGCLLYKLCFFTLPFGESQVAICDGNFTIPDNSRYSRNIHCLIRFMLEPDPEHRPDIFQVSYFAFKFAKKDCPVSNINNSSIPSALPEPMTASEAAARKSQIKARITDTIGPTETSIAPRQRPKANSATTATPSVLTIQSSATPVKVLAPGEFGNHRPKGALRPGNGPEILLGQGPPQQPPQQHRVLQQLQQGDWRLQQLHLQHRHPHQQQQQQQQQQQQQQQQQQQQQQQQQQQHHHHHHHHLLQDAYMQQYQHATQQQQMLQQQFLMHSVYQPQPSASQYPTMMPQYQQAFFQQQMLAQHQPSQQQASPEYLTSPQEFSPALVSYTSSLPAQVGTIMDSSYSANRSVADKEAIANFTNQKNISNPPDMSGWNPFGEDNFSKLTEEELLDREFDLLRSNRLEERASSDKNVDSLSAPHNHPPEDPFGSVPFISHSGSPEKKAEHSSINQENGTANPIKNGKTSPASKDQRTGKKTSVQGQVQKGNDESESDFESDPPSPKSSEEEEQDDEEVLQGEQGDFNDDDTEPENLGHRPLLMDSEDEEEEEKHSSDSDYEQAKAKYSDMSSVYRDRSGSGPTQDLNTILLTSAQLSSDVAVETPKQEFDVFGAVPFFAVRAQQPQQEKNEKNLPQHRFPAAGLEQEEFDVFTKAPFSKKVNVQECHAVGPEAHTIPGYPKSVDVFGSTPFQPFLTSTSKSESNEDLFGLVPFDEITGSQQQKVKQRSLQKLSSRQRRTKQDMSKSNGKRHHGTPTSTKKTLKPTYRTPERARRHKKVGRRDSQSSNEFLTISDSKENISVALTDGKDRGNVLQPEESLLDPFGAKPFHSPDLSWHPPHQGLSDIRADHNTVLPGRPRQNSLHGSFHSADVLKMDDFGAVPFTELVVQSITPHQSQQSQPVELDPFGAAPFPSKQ
# T7 sequence (Q9BZL6 whole entry): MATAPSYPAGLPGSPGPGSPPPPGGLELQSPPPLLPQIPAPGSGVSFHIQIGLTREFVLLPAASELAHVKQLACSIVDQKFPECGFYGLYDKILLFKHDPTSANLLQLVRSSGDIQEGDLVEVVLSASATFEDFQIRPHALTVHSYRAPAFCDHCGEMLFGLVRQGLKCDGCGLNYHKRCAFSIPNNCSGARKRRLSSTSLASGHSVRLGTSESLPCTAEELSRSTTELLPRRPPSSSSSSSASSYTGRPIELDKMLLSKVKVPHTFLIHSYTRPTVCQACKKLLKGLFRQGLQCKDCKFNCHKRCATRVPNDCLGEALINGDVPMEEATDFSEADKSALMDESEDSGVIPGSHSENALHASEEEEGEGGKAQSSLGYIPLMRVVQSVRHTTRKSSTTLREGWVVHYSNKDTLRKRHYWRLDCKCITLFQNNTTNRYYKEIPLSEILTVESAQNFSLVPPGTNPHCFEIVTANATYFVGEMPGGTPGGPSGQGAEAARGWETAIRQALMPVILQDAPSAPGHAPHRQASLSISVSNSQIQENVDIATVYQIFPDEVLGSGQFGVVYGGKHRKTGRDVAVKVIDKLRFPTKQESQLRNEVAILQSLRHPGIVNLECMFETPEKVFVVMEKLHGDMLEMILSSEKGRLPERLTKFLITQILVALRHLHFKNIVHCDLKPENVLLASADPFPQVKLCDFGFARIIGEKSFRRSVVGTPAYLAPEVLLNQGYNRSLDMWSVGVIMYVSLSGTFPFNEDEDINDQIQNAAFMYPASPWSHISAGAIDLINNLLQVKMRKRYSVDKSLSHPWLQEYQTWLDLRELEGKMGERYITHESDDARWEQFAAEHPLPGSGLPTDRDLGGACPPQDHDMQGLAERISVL
# NEK2, sequence (P51955 whole entry): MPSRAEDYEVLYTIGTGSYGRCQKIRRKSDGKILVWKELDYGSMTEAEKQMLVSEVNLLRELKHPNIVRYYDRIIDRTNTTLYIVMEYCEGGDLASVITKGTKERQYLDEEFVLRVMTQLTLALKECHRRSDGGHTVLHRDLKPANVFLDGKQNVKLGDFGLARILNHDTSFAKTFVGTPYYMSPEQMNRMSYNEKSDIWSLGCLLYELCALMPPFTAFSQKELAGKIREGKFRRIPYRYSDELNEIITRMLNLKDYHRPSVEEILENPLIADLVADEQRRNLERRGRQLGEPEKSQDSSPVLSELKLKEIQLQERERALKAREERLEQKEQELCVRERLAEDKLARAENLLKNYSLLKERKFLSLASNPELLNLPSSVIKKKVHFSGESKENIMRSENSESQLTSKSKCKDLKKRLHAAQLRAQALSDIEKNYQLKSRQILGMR
structure (smiles),measurement,setting,value
"CC(C)NS(=O)(=O)c1cncc(-c2ccc3nc(NC(=O)NCCN)nn3c2)c1 [CZC31207, 5-(2-(3-(2-aminoethyl)ureido)-[1,2,4]triazolo[1,5-a]pyridin-6-yl)-N-isopropylpyridine-3-sulfonamide]",Competition % PIK4Ca,[1],39.9%
same,Competition % BCKDK,[2],8%
same,Competition % CaMK2g,[3],15.2%
same,Competition % MAP3K1,[4],13.3%
same,Competition % PIK4C2B,[5],20.3%
same,Competition % CDC2,[6],34.1%
same,Competition % PIK3C3,[7],52.4%
same,Competition % CDK6,[8],−1.6%
same,Competition % MST1,[9],24.5%
same,Competition % BIKE,[10],26.1%
same,Competition % PKD2,[11],37.9%
same,Competition % CaMK2d,[12],−1.3%
same,Competition % PIP5K2A,[13],68.5%
same,Competition % NEK2,[14],17%
same,Competition % PIK3Cd,[15],91.3%
same,Competition % PIK3Cb,[16],94.8%
same,Competition % FRAP,[17],−87.1%
same,Competition % PIK3Cg,[18],91.5%
same,Competition % PIP5K2C,[19],75.5%
